Where “and” joins values, the source holds several entries; their conditions need not be identical. Identical values can stand only once.
Assays:
ERβ [1] = target: T1, ERβ (Homo sapiens, UniProt Q92731); assay: Competitive 3H-estradiol binding assay, ERβ; design: expressed in transfected cells; host or cells: HEK293 cells, transient transfection
Method: (§1) Cells were then harvested by scraping in ice-cold PBS and subsequently lysed using a cold buffer containing 10 mM Tris pH 7.4, 1 mM EDTA, 1 mM DTT before being subjected to polytron twice for 10 seconds. Cytosolic extracts were isolated by centrifugation at 15000 g for 30 minutes at 4° C. Competitive binding of the test compounds or the estradiol control was performed on 20 μL extract by overnight incubation at 4° C. in a total volume of 100 μL containing 1 nM ^3H-estradiol (Perkin Elmer, Boston, Mass.). The bound fraction was separated from the unbound one by the addition of 100 μL of Dextran coated charcoal, incubated for 10 minutes and subsequent centrifugation at 1000 rpm for 10 minutes. Samples (100 μL per sample) were then analyzed by liquid scintillation. Data was then analyzed using the curve fitting software GraphPad Prism.

ERβ [2] = target: T1, ERβ; assay: R-SAT functional assay, ERβ; assay type: cell-based; design: expressed in transfected cells; host or cells: transient transfection
Description: (§2) R-SAT® (Receptor Selection and Amplification Technology) is a cell-based functional assay that allows one to monitor receptor-dependent proliferative responses and has been described elsewhere. […] This process is achieved by partial cellular transformation via loss of contact inhibition and growth factor dependency. Monitoring is achieved by transfecting the cells with a β-galactosidase reporter gene vector whose expression is under a constitutively active promoter. Briefly, NIH-3T3 fibroblasts were plated overnight in 96-wells plates in DMEM 10% calf serum (Hyclone) and grown to 60-70% confluency prior to transfection. Transient transfections were performed using Polyfect (Qiagen) according to manufacturer's instructions. Typically a transfection mix would consist of the receptor and the β-galactosidase expression vectors. Sixteen hours post-transfection, cells were incubated with different doses of ligand in DMEM containing 30% Ultraculture (Hyclone) and 0.4% calf serum (Hyclone) to generate a dose response curve. […] Plates were read using a microplate reader at 420 nm. Data from R-SAT® assays were fit to the equation: r=A+B(x/(x+c)), where A=minimum response, B=maximum response minus minimum response, c=EC50, r=response, and x=concentration of ligand. Curves were generated using the curve fitting softwares Excel Fit and GraphPad Prism (San Diego, Calif.). Luciferase Reporter Gene Assay

ERβ [3] = target: T1, ERβ; assay: R-SAT functional assay, ERβ; assay type: cell-based; design: expressed in transfected cells; host or cells: transient transfection; remark: listed apart in the source
[4] = Metabolic stability in liver microsomes, rat; assay type: in vitro ADME; conditions: low value = metabolically stable
Method: (§3) Also the metabolic stability in liver microsomes was tested for some compounds.

ERβ [5] = target: T1, ERβ; assay: Luciferase reporter gene assay (3*ERE) in HEK293 cells, ERβ; assay type: cell-based; design: expressed in transfected cells; host or cells: HEK293 cells, transient transfection; conditions: for Emax: read-out: Luciferase Erβ % Eff
Method: (§4) HEK293 cells were grown to 70% confluency in DMEM containing 10% calf serum (Hyclone) prior to transfection. On the day of transfection (day 1), expression vectors for ERα or ERβ were cotransfected along a construct containing a synthetic 3*ERE upstream of the luciferase gene (Panomics), using Polyfect (Qiagen) per manufacturer's recommendations (ERE being estrogen response element). Sixteen hours post-transfection, cells were incubated in serum free DMEM. […] Cells extracts were then obtained by lyzing and the Luciferase activity measured, all of these steps performed using a commercially available kit (Promega).

ERα [6] = target: T2, ERα (Homo sapiens, UniProt P03372); assay: R-SAT functional assay, ERα; assay type: cell-based; design: expressed in transfected cells; host or cells: NIH-3T3 fibroblasts, transient transfection; conditions: NIH-3T3 cells; for EC50: na = not active, read-out: R-SAT Erα pEC50 (converted)
T2 sequence (P03372 1-595): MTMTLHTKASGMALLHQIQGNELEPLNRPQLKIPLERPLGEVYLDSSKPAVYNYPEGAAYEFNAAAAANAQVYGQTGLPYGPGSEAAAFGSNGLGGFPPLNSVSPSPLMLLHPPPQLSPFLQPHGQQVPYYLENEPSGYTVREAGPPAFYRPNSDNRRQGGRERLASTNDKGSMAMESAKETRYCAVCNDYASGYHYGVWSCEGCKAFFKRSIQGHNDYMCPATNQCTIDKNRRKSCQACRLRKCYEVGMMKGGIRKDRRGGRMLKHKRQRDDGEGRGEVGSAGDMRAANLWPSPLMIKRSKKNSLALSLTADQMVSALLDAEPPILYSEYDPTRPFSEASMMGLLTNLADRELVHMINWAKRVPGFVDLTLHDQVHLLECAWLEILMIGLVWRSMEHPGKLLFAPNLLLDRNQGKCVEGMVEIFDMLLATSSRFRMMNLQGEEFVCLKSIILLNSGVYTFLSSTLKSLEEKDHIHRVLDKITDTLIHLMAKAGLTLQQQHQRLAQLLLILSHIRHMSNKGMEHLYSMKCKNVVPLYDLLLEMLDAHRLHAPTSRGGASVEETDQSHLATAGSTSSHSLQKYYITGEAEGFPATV
Description: as §2

ERα [7] = target: T2, ERα; assay: Competitive 3H-estradiol binding assay, ERα; conditions: 1 nM 3H-estradiol, HEK293T cytosolic extract; read-out: Binding ERα pKi (converted)
Method: as §1, with “HEK293T cells were transiently transfected for 48 hours with expression vectors encoding ERα or ERβ, before being serum starved for 4-6 hours. Cells” for “Cells”

ERα [8] = target: T2, ERα; assay: Luciferase reporter gene assay (3*ERE) in HEK293 cells, ERα; assay type: cell-based; design: expressed in transfected cells; host or cells: transient transfection; conditions: 48 hours; for EC50: na = not active, read-out: Luciferase Erα pEC50 (converted)
Method: as §4

[9] = Metabolic stability in liver microsomes, human; assay type: in vitro ADME; conditions: low value = metabolically stable
Method: as §3

[10] = Unidirectional permeability across MatTek EpiOral buccal tissue; assay type: in vitro ADME, human; conditions: test compound 10 μM co-dosed with controls atenolol and caffeine 100 μM, DPBS pH 7.4, 37° C.
Method: EpiOral→tissues plated in 24-well plates were obtained from MatTek Corporation (Ashland, Mass., USA). The assay buffer was Dulbeccos' Phosphate Buffered Saline (DPBS) without Ca & Mg chloride, pH 7.4. Each test compound was co-dosed with the two control compounds. Targeting dosing concentrations were 10 μM for each test compound and 100 μM for the two control compounds. Prior to the permeability assay onset, the tissues were preequilibrated in a pre-warmed EpiOral assay medium for one hour at 37° C. in a 5% CO2 incubator. The EpiOral assay medium was aspirated after the pre-equilibration, and the tissues were washed twice with the DPBS buffer. The receiver chambers were filled with 0.75 mL of the DPBS buffer, while the donor chambers received 0.4 mL of the dosing solutions. The assay plates were placed at 37° C. in a 5% CO2 incubator. The receiver samples (200 μL) were collected at 30, 60, and 120 minutes, and replaced with an equal volume of fresh pre-warmed receiver buffer (except for the last time point of 120 minutes). The donor sides were sampled at 0 and 120 minutes. The test compounds were then analyzed using LC-MS/MS.

[11] = Microsomal bioavailability (Table 2); assay type: in vitro ADME; conditions: read-out: Microsomal bioavailability F (%)
Taxol-induced allodynia = assay: Taxol-induced neuropathy model; assay type: in vivo, male SD rats; conditions: for effect on Taxol-induced allodynia: s.c. (gabapentin i.p.), Compound 8 at 10 and 30 mg/kg, 2 hours post-dose
Method: Neuropathy was induced in male SD rats by 4×1 mg/kg consecutive daily doses of taxol as described (Naguib M, Diaz P, Xu J J, Astruc-Diaz F, Craig S, Vivas-Mejia P, Brown D L. MDA7: a novel selective agonist for CB2 receptors that prevents allodynia in rat neuropathic pain models. Br J. Pharmacol. 2008 December; 155(7):1104-16). The presence of tactile allodynia (von Frey filament 50% response threshold of <5 g) was confirmed prior to inclusion in the study. Drugs were administered sub-cutaneously (s.c.) except gabapentin was given intra-peritoneally (i.p.). Doses are given in mg/kg. * p<0.05.
Allodynia was assessed by applying a light tactile stimulus (Von Frey hairs) to the plantar surface of the surgical paw until the 50% threshold was established. A positive response was recorded if the paw was sharply withdrawn. Eight VonFrey hairs were used (3.61, 3.84, 4.08, 4.31, 4.56, 4.74, 4.93 and 5.18). MPE (%) was calculated as [(Rdrug−Rveh)/(Rsham−Rveh)]*100% where Rveh was 4 and Rsham was 13. Repeat dosing (FIG. 10C) was performed by administering the indicated doses of Compound 8 once daily via the s.c. route. Efficacy was measured 2 hours post-dose.

[12] = NIH3T3, read-out: R-SAT Erβ % Eff
[13] = NIH3T3, NIH-3T3 cells, read-out: R-SAT Erβ % Eff

T1 sequence (Q92731 whole entry, species assumed): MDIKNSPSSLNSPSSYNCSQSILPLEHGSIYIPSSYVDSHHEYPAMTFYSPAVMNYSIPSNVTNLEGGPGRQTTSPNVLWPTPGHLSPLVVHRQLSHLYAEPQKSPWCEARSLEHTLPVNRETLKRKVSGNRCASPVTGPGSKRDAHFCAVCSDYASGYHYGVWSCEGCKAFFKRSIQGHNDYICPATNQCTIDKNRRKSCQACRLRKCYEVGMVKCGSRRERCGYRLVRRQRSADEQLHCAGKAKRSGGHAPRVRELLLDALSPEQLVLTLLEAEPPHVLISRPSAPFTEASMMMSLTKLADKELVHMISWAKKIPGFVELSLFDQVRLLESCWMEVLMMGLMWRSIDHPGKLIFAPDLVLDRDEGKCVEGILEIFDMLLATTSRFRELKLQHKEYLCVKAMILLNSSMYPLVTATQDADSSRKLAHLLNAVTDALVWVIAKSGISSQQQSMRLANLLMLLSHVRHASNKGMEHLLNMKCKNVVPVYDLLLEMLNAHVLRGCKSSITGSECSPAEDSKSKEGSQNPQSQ

Row | Structure (SMILES) | Ki (ERβ [1]) [nM] | Emax (ERβ [2]; [12]) [%] | EC50 (ERβ [3]) [nM] | microsomal CLint [4] [µL/min/mg] | EC50 (ERβ [5]) [nM] | Emax (ERβ [5]; HEK293, 48 h) [%] | R-SAT Erα % Eff (ERα [6]) [%] | EC50 (ERα [6]) [nM] | Ki (ERα [7]) [nM] | Luciferase Erα % Eff (ERα [8]) [%] | microsomal CLint [9] [µL/min/mg] | apparent permeability coefficient (Papp) across MatTek EpiOral buccal tissues [10] | Microsomal bioavailability (predicted from microsomes) [11] [%] | maximum effect (MPE) (Taxol-induced allodynia; gabapentin i.p.) [%] | effect on Taxol-induced allodynia (Taxol-induced allodynia) | Emax (ERβ [2]; [13]) [%] | Emax (ERβ [5]; HEK293 cells, 48 hours) [%] | EC50 (ERα [8]) [nM]
1 | Oc1ccc(C2(c3ccccc3Cl)CCC(F)(F)CC2)cc1F [Compound 14] | 3.98 | 60 | 1.58 | 113 | 0.631 | 52 | 145 | 100 | 50.1 | 82 |  |  |  |  |  |  |  | 
2 | Oc1ccc(C2(c3ccccc3F)CCC(F)(F)CC2)cc1F [Compound 10, 4-(4,4-Difluoro-1-(2-fluorophenyl)cyclohexyl)-2-fluorophenol] | 5.01 | 57 | 2.51 | 95 | 2 | 55 | 100 | 1000 | 251 | 2 | 11 |  |  |  |  |  |  | 
3 | Cn1c(=O)c2c(ncn2C)n(C)c1=O [caffeine] |  |  |  |  |  |  |  |  |  |  |  | 27.5 ×10⁻⁶ cm/s and 22.3 ×10⁻⁶ cm/s |  |  |  |  |  | 
4 | COc1ccc(C2(c3ccccc3F)CCC(F)(F)CC2)cc1 [Compound 9, 1-(4,4-Difluoro-1-(4-methoxyphenyl)cyclohexyl)-2-fluorobenzene] |  |  |  |  |  |  |  |  |  |  |  |  | 19.6 |  |  |  |  | 
5 | NCC1(CC(=O)O)CCCCC1 [gabapentin] |  |  |  |  |  |  |  |  |  |  |  |  |  | 39 | relatively ineffective |  |  | 
6 | Oc1ccc(C2(c3ccccc3F)CCCCC2)cc1 [Compound 152] | 63.1 |  | 12.6 | 405 | 20 |  | 29 | 1580 |  | 48 | 27 |  |  |  |  | 69 | 126 | 3980
7 | Oc1ccc(C2(c3ccccc3Cl)CCCCC2)cc1 [Compound 558] | 50.1 |  | 6.31 |  | 2.51 |  | 48 | 1260 | 1000 | 37 |  |  | 2 |  |  | 73 | 101 | 1580
8 | Oc1ccc(C2(c3ccccc3Cl)CCC(F)(F)CC2)cc1 [Compound 12] | 3.98 |  | 3.16 | 147 | 0.631 |  | 74 |  | 100 | 30 |  |  |  |  |  | 42 | 74 | 
9 | N#CC(Cc1ccc(O)cc1)c1ccc(O)cc1 (stereo not drawn) [DPN] |  |  |  |  |  |  |  |  |  |  |  |  |  |  | active |  |  | 
